Key:
[1] = Insulin oral delivery in rats; assay type: in vivo, rat; details: oral gavage to fasted male Sprague-Dawley rats; dosing solution delivery agent 200 mg/ml + human recombinant insulin 0.5 mg/ml
[2] = Heparin (LMWH) oral delivery in rats, plasma LMWH by anti-Factor Xa assay; assay type: in vivo, rat; details: male Sprague-Dawley rats, delivery agent 300 mg/kg, LMWH 100 IU/kg, volume 3 ml/kg, 25% aqueous propylene glycol
Procedure: Oral dosing solutions containing delivery agent compound and heparin sodium USP were prepared in 25% aqueous propylene glycol. Either the sodium salt of the delivery agent compound was used or the free acid was converted to the sodium salt with one equivalent of sodium hydroxide. The delivery agent compound and heparin (about 166-182 IU/mg) were mixed by vortex as dry powders. This dry mixture was dissolved in 25% v/v aqueous propylene glycol, vortexed, and placed in a sonicator (about 37° C.). The pH was adjusted to about 7 (6.5-8.5) with aqueous NaOH (2N). The dosing solution was sonicated to produce a clear solution. The final volume was adjusted to about 3.0 ml.
Male Sprague-Dawley rats were fasted for 24 hours and anesthetized with ketamine hydrochloride (88 mg/kg) intramuscularly immediately prior to dosing and again as needed to maintain anesthesia. A dosing group of five animals were administered one of the dosing solutions. An 11 cm Rusch 8 French catheter was adapted to a 1 ml syringe with a pipette tip. […]
Citrated blood samples were collected by cardiac puncture following the administration of ketamine (88 mg/kg), typically at 0.25, 0.5, 1.0 and 1.5 hours after dosing. […] LMWH absorption was verified by an increase in plasma LMWH measured by the anti-Factor Xa assay CHROMOSTRATE™ Heparin anti-Xa assay (available from Organon Teknika Corporation, Durham, N.C.).

| SMILES | % Glucose Cmin (Rat) [1] | melting point | Mean Peak Plasma LMWH Concentration (IU/ml) ± SD [2] |
| --- | --- | --- | --- |
| Cc1ccccc1CCOCC(=O)O [Compound 1, (2-o-Tolyl-ethoxy)-acetic acid] | −36.5% |  |  |
| Cc1ccc(CCOCC(=O)O)cc1 [Compound 2] | −54.3% | 50 to 52 °C |  |
| Cc1cccc(CCOCC(=O)O)c1 [Compound 3, Sodium (2-m-Tolyl-ethoxy)-acetate] | −30.1% |  |  |
| O=C(O)COCCc1ccc(Cl)cc1 [Compound 4] | −54.3% | 51 to 52 °C |  |
| O=C(O)COCCc1ccccc1Cl [Compound 5] | −39.7% |  |  |
| O=C(O)COCCc1cccc(Cl)c1 [Compound 6] | −20.9% |  |  |
| O=C(O)COCCc1ccc(F)cc1 [Compound 7] | −41.9% | 67 to 68 °C |  |
| O=C(O)COCCc1ccccc1F [Compound 8] | −33.5% |  |  |
| O=C(O)COCCc1cccc(F)c1 [Compound 9] | −29.3% | 36 to 37 °C |  |
| Cc1ccc(COCC(=O)O)cc1 [Compound 10] | −46.6% | 44 to 45 °C |  |
| Cc1cccc(COCC(=O)O)c1 [Compound 11] | −23.7% |  |  |
| O=C(O)COCc1ccc(Cl)cc1 [Compound 13] | −45.3% |  |  |
| O=C(O)COCc1cccc(Cl)c1 [Compound 14] | −35.3% |  |  |
| O=C(O)COCc1ccccc1Cl [Compound 15] | −39.9% |  |  |
| O=C(O)COCc1ccc(F)cc1 [Compound 16] | −18.1% |  |  |
| O=C(O)COCc1cccc(F)c1 [Compound 17] | −17.6% |  |  |
| O=C(O)COCc1ccccc1F [Compound 18] | −14.6% |  |  |
| Cc1cc(C)c(COCC(=O)O)c(C)c1 [Compound 19, (2,4,6-Trimethyl-benzyloxy)-acetic acid] | −27.5% | 81 to 83 °C |  |
| Cc1cc(C)c(C)c(COCC(=O)O)c1C [Compound 20] |  | 103 to 105 °C |  |
| Cc1ccc(C)c(COCC(=O)O)c1 [Compound 21] | −35.0% | 74 to 75 °C |  |
| Cc1ccc(COCC(=O)O)c(C)c1 [Compound 22] |  | 54 to 56 °C |  |

| SMILES | % Glucose Cmin (Rat) [1] | melting point | Mean Peak Plasma LMWH Concentration (IU/ml) ± SD [2] |
| --- | --- | --- | --- |
| Cc1ccc(COCC(=O)O)cc1Cl [Compound 23] | −5.5% | 53 to 54 °C |  |
| Cc1ccc(C)c(CCOCC(=O)O)c1 [Compound 24] | −24.7% | 42 to 43 °C |  |
| Cc1cc(C)cc(CCOCC(=O)O)c1 [Compound 25] | −4.6% | 50 to 51 °C |  |
| O=C(O)COCCCCc1ccccc1 [Compound 26] | −21.0% |  |  |
| O=C(O)COCCc1ccccc1C(F)(F)F [Compound 27] | −11.3% |  |  |
| COc1ccc(CCCCOCC(=O)O)cc1 [Compound 28] | −10.6% |  |  |
| COc1ccc(CCCOCC(=O)O)cc1 [Compound 29] | −36.3% |  |  |
| Cc1ccc(CCCOCC(=O)O)cc1 [Compound 30] | −19.5% |  |  |
| Cc1ccccc1CCCOCC(=O)O [Compound 31] | −6.1% |  |  |
| O=C(O)COCCCCCc1ccccc1 [Compound 32] | −15.1% |  |  |
| COc1ccc(CCOCC(=O)O)cc1 [Compound 33] | −9.8% |  |  |
| O=C(O)COCCc1ccccc1 [Compound 34] | −32.2% |  |  |
| O=C(O)COCCCc1ccccc1 [Compound 35] | −26.1% |  |  |
| COc1ccccc1CCOCC(=O)O [Compound 36] | −4.4% |  |  |
| O=C(O)COCCc1ccc(F)cc1Cl [Compound 37] | −30.0% |  |  |
| O=C(O)COCCc1ccc(Br)cc1 [Compound 39] | −31.6% |  |  |
| O=C(O)COC1Cc2ccccc2C1 [Compound 40] | −15.8% |  |  |
| O=C(O)COC1CCc2ccccc21 (stereo not drawn) [Compound 41] | −27.8% |  |  |
| O=C(O)COCCCc1ccc(Cl)cc1 [Compound 42] | −20.4% |  |  |
| O=C([O-])CCCCCCCNC(=O)c1ccccc1O.[Na+] [Delivery Agent A, monosodium salt of N-(8-[2-hydroxybenzoyl]-amino)caprylic acid] |  |  | 0.984 IU/ml |

— patent publication US8703821B2, “Dialkyl ether delivery agents” (Emisphere Technologies Inc., priority 2006, dated 2014)
